How the values were obtained:
[1] = tested on: normal NK cells expanded with K562-aAPC; test: percent inhibition of viability; higher = more inhibition; conditions: 72 h, IL-2 2.5 ng/mL
Protocol: (§1)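 Drug sensitivity and resistance testing on K562-aAPC-expanded normal NK cells: 5 concentrations (10-fold steps over a 10,000-fold range), 72 h at 37 °C, viability by CellTiter-Glo normalised to DMSO and benzethonium chloride controls; DSS from the fitted curve.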

[2] = tested on: SNK-6 (IL-2 2.5 ng/mL); test: as above; conditions: 72 h
[3] = tested on: DERL-7 (IL-2 2.5 ng/mL); test: as above; conditions: 72 h
[4] = tested on: IMC-1 (IL-2 20 ng/mL); test: as above; conditions: 72 h
[5] = tested on: normal primary NK cells, pool 1 (3 donors), resting (IL-2 0 ng/mL); test: as above; conditions: 72 h
[6] = tested on: normal primary NK cells, pool 1 (3 donors) (IL-2 2.5 ng/mL); test: as above; conditions: 72 h
[7] = tested on: NK-92 (IL-2 2.5 ng/mL); test: as above; conditions: 72 h
[8] = tested on: normal primary NK cells, pool 2 (3 donors) (IL-2 2.5 ng/mL); test: as above; conditions: 72 h
[9] = tested on: NKL (IL-2 2.5 ng/mL); test: as above; conditions: 72 h
[10] = tested on: KAI3 (IL-2 2.5 ng/mL); test: as above; conditions: 72 h
[11] = tested on: YT (IL-2 2.5 ng/mL); test: as above; conditions: 72 h
[12] = tested on: NK-YS (IL-2 2.5 ng/mL); test: as above; conditions: 72 h
[13] = tested on: KHYG-1 (IL-2 2.5 ng/mL); test: as above; conditions: 72 h
[14] = tested on: normal primary NK cells, pool 3 (3 donors) (IL-2 2.5 ng/mL); test: as above; conditions: 72 h
[15] = tested on: SNK-6 (IL-2 2.5 ng/mL); test: drug sensitivity score (DSS) (DSS units); higher = more sensitive; extreme values may be limits of the assay; conditions: 72 h
[16] = tested on: DERL-7 (IL-2 2.5 ng/mL); test: as above; conditions: 72 h
[17] = tested on: IMC-1 (IL-2 20 ng/mL); test: as above; conditions: 72 h
[18] = tested on: normal primary NK cells, pool 1 (3 donors), resting (IL-2 0 ng/mL); test: as above; conditions: 72 h
[19] = tested on: normal primary NK cells, pool 1 (3 donors) (IL-2 2.5 ng/mL); test: as above; conditions: 72 h
[20] = tested on: NK-92 (IL-2 2.5 ng/mL); test: as above; conditions: 72 h
[21] = tested on: normal primary NK cells, pool 2 (3 donors) (IL-2 2.5 ng/mL); test: as above; conditions: 72 h
[22] = tested on: NKL (IL-2 2.5 ng/mL); test: as above; conditions: 72 h
[23] = tested on: KAI3 (IL-2 2.5 ng/mL); test: as above; conditions: 72 h
[24] = tested on: YT (IL-2 2.5 ng/mL); test: as above; conditions: 72 h
[25] = tested on: NK-YS (IL-2 2.5 ng/mL); test: as above; conditions: 72 h
[26] = tested on: KHYG-1 (IL-2 2.5 ng/mL); test: as above; conditions: 72 h
[27] = tested on: normal primary NK cells, pool 3 (3 donors) (IL-2 2.5 ng/mL); test: as above; conditions: 72 h
[28] = tested on: normal NK cells expanded with K562-aAPC; test: as above; conditions: 72 h; IL-2 2.5 ng/mL
Protocol: as §1

Clc1ccc(Nc2nnc(Cc3ccncc3)c3ccccc23)cc1 [Vatalanib] (max concentration tested 10000 nM)
percent inhibition of viability [%]
Conditions	1 nM	10 nM	100 nM	1000 nM	10000 nM
[1]	-5.26	1.3	-1.96	9.03	9.76
[2]	9.43	19.1	24.5	8.51	0.02
[3]	1.72	5.91	0.68	4.05	0.46
[4]	-2.63	0.44	3.66	5.09	30.7
[5]	8.82	-6.33	-5.39	-29.3	12.2
[6]	-1.16	-14.2	-9.3	-17.4	-10.3
[7]	5.05	7.47	10.4	6.67	30.2
[8]	-10.1	-2.12	-4.7	-5.37	2.5
[9]	-15.8	-12.6	-1.27	4.13	31.1
[10]	0.27	-2.4	-1.03	-4.6	20.6
[11]	-1.15	0.78	6.42	-0.36	12.6
[12]	0.51	-0.15	5.11	1.16	15.7
[13]	0.78	0.74	8.34	3.67	19.5
[14]	-15.5	-8.9	-5.65	-2.32	-4.9

Conditions	drug sensitivity score
[15]	0
[16]	0
[17]	2.18
[18]	0.01
[19]	0
[20]	2.23
[21]	0
[22]	2.05
[23]	0.45
[24]	0.07
[25]	0.39
[26]	0.55
[27]	0
[28]	0

CC[C@]1(O)C[C@H]2CN(CCc3c([nH]c4ccccc34)[C@@](C(=O)OC)(c3cc4c(cc3OC)N(C=O)[C@H]3[C@@](O)(C(=O)OC)[C@H](OC(C)=O)[C@]5(CC)C=CCN6CC[C@]43[C@@H]65)C2)C1 [Vincristine] (max concentration tested 1000 nM)
percent inhibition of viability [%]
Conditions	0.1 nM	1 nM	10 nM	100 nM	1000 nM
[1]	-6.33	-6.29	31.6	59	62.6
[2]	-5.32	2.61	81.6	86.6	96.8
[3]	-4.76	-3.31	99.7	100	99.9
[4]	-6.56	-3.8	99.6	101	101
[5]	-21.8	5.88	11	33.2	38.4
[6]	-8.19	4.79	8.62	16.3	23.7
[7]	0.11	-12.7	50.9	101	106
[8]	-7.02	11	16.4	18.7	25.8
[9]	-4.74	5.25	97.5	99.9	101
[10]	-2.89	0.47	50	71.7	82.8
[11]	-6.99	-4.04	97.3	106	106
[12]	-8.13	-3.11	72.6	72.9	87.9
[13]	-4.8	0.56	99.8	108	109
[14]	-10	9.15	8.72	4.62	15.8

Conditions	drug sensitivity score
[15]	27.4
[16]	30.1
[17]	30.1
[18]	6.94
[19]	2.75
[20]	24.3
[21]	4.98
[22]	30.9
[23]	20.7
[24]	29.8
[25]	24.4
[26]	30.5
[27]	0.39
[28]	15.5
